From US9060511B2, “Compositions of dibromomalanomide and their use as biocides” (Rohm and Haas Company, priority 2010, dated 2015)

Legend:
[1] = Growth inhibition assay (microtiter plate-based synergy assay); assay type: cell-based; details: Example 3
Text: (§1) The results provided in the Examples are generated using a growth inhibition assay. Details of each assay are provided below.
(§2) Growth Inhibition Assay. The growth inhibition assay used in the Examples measures inhibition of growth (or lack thereof) of a microbial consortium Inhibition of growth can be the result of killing of the cells (so no growth occurs), killing of a significant portion of the populations of cells so that regrowth requires a prolonged time, or inhibition of growth without killing (stasis). Regardless of the mechanism of action, the impact of a biocide (or combination of biocides) can be measured over time on the basis of an increase in the size of the community.
(§3) The assay measures the efficacy of one or more biocides at preventing growth of a consortium of bacteria in a dilute mineral salts medium. The medium contains (in mg/l) the following components: FeCl3.6H2O (1); CaCl2.2H2O (10); MgSO4.7H2O (22.5); (NH4)2SO4 (40); KH2PO4 (10); K2HPO4 (25.5); Yeast Extract (10); and glucose (100). After all components are added to deionized water, the pH of the medium is adjusted to 7.5. Following filter sterilization, aliquots are dispensed in 100 μl quantities to sterile microtiter plate wells. Dilutions of 2,2-dibromomalonamide (“DBMAL”) and/or “Biocide B” are then added to the microtiter plate. After preparing the combinations of actives as illustrated below, each well is inoculated with 100 μl of a cell suspension containing ca. 1×10^6 cells per milliliter of a mixture of Pseudomonas aeruginosa, Klebsiella pneumoniae, Staphylococcus aureus, and Bacillus subtilis. The final total volume of medium in each well is […]. […] The resulting matrix allows testing of eight concentrations of each active and 64 combinations of actives in the ratios (of actives).
(§4) Controls (not shown) contain the medium with no biocide added.
(§5) Immediately after the microtiter plates are prepared, the optical density (OD) readings for each well is measured at 580 nm and the plates are then incubated at 37° C. for 24 hr. After the incubation period, the plates are gently agitated before OD580 values are collected. The OD580 values at T0 are subtracted from T24 values to determine the total amount of growth (or lack thereof) that occurs. These values are used to calculate the percent inhibition of growth caused by the presence of each biocide and each of the 64 combinations. A 90% inhibition of growth (I90) value is used as a threshold for calculating synergy index (SI) values with the following equation: Synergy Index=MDBMAL/CDBMAL+MB/CB
(§6) where • CDBMAL: Concentration of DBMAL required to inhibit at least 90% of bacterial growth when used alone • CB: Concentration of biocide (B) required to inhibit at least 90% of bacterial growth when used alone. • MDBMAL: Concentration of DBMAL required to inhibit at least 90% of bacterial growth when used in combination with biocide (B). • MB: Concentration of biocide (B) required to inhibit at least 90% of bacterial growth when used in combination with DBMAL The SI values are interpreted as follows: • SI<1: Synergistic combination • SI=1: Additive combination • SI>1: Antagonistic combination
(§7) In the Examples below, the amounts of biocides in the solution are measured in mg per liter of solution (mg/l). Since solution densities are approximately 1.00, the mg/1 measurement corresponds to weight and can be expressed as parts per million (ppm). Both units may therefore be used interchangeably in the Examples.

[2] = tested on: consortium of bacteria: mixture of Pseudomonas aeruginosa, Klebsiella pneumoniae, Staphylococcus aureus, and Bacillus subtilis; test: as above; assay type: cell-based; details: for I90 (concentration required to inhibit at least 90% of bacterial growth when used alone) / I90 (concentration required for at least 90% inhibition of growth): active alone, 37° C., 24 hr; for I90 (concentration required for at least 90% inhibition of growth): Example 2; for % Inhibition of Growth: Example 3
Text: as §1, §2, §3, §4, §5, §6, §7

## NC(=O)C(Br)(Br)C(N)=O [DBMAL, 2,2-dibromomalonamide]
[1]; DBMAL Alone 0.20 mg/l
  inhibition at 0.2 µg/mL: 2%
[1]; DBMAL Alone 0.39 mg/l
  inhibition at 0.39 µg/mL: 0%
[1]; DBMAL Alone 0.78 mg/l
  inhibition at 0.78 µg/mL: 4%
[1]; DBMAL Alone 1.56 mg/l
  inhibition at 1.56 µg/mL: 9%
[1]; DBMAL Alone 3.13 mg/l
  inhibition at 3.13 µg/mL: 21%
[1]; DBMAL Alone 6.25 mg/l
  inhibition at 6.25 µg/mL: 29%
[1]; DBMAL Alone 12.50 mg/l
  inhibition at 12.5 µg/mL: 100%
[1]; DBMAL Alone 25.00 mg/l
  inhibition at 25 µg/mL: 100%
[2]; Example 1 Experiment 1
  I90 (concentration required to inhibit at least 90% of bacterial growth when used alone): 12.5 mg/L
[2]
  I90 (concentration required for at least 90% inhibition of growth): 12.5 mg/L

## [Cu] [Cu, copper]
[2]
  I90 (concentration required for at least 90% inhibition of growth): 0.78 mg/L

## [Zn] [Zn, zinc, reference compound]
[2]; Zn Alone 19.5 mg/l
  % Inhibition of Growth: 19%
[2]; Zn Alone 39.1 mg/l
  % Inhibition of Growth: 12%
[2]; Zn Alone 78.1 mg/l
  % Inhibition of Growth: 18%
[2]; Zn Alone 156.3 mg/l
  % Inhibition of Growth: 23%
[2]; Zn Alone 312.5 mg/l
  % Inhibition of Growth: 33%
[2]; Zn Alone 625.0 mg/l
  % Inhibition of Growth: 74%
[2]; Zn Alone 1250.0 mg/l
  % Inhibition of Growth: 91%
[2]; Zn Alone 2500.0 mg/l
  % Inhibition of Growth: 92%

## [Ag] [Ag, silver]
[2]; Example 1 Experiment 1
  I90 (concentration required to inhibit at least 90% of bacterial growth when used alone): 0.063 mg/L
[2]; Example 1 subsequent experiment (Experiment 2)
  I90 (concentration required to inhibit at least 90% of bacterial growth when used alone): 0.125 ppm
